Test results taken from patent publication US20170190691A1, “NOVEL 5-ACYLSULFANYL-HISTIDINE COMPOUNDS AS PRECURSORS OF THE CORRESPONDING 5-SULFANYLHISTIDINES AND THEIR DISULFIDES” (TETRAGEDRON, priority 2014, published 2017).

What was measured:
Assay type in all cases: physicochemical
[1] = Hydrolysis of compound 3 in water at 90° C. in air, monitored by HPLC; conditions: after 7 h
Method: c) Preparation of the compound L-5-sulfanyl-α,N,N,N(trimethyl)-histidine (compound 26) by hydrolysis of the 5-acylsulfanyl compound 3
Compound 3 is prepared and purified by column as described in Example 5. 170 mg (0.6 mmoles) of compound 3 are dissolved in 10 mL of water, and the solution is heated at 90° C. in air for 7 h. The conversion is monitored by HPLC. The hydrolysis of compound 3 is complete after 7 h. The solution is evaporated to dryness. The residue is dissolved in a mixture of 5 mL of methanol and 93 mg (0.6 mmol) of dithiothreitol. After stirring for 4 h under an inert atmosphere, 2 mL of ethanol are added. A precipitate forms immediately, which is filtered and washed with ethanol (2×2 mL), then with ethyl ether (2×2 mL). After drying, 104 mg (72%) of L-5-sulfanyl-α,N,N,N(trimethyl)-histidine are obtained in the form of a beige powder.

[2] = Analytical monitoring by 1H NMR and HPLC-ELSD of the hydrolysis of compound 3 into compound 26 in the presence of a thiol (3-mercaptopropionic acid), D2O, 40° C.; conditions: 5 equivalents 3-mercaptopropionic acid
Method: b) Analytical monitoring by ^1H NMR of the hydrolysis of the 5-acylsulfanyl compound 3 into the compound L-5-sulfanyl-α,N,N,N(trimethyl)-histidine (Compound 26) in the presence of a thiol
Compound 3 is prepared and purified by column as described in Example 5. 100 mg (0.33 mmoles, 1 eq.) of compound 3 are dissolved in 2.4 mL of D2O. 172 mg of 3-mercaptopropionic acid (142 μL, 5 equivalents) are added, and the solution is heated at 40° C. The conversion is monitored by ^1H NMR and by HPLC-ELSD. The yield of hydrolysis of compound 3 is 90% after 3 h (monitored by ^1H NMR). Compound 26 is formed after 3 h 30 with a yield of 97% (HPLC-ELSD).

[3] = Analytical monitoring by 1H NMR of the hydrolysis of compound 3 and oxidation in situ into compound 27, D2O at ambient temperature; conditions: for % hydrolysis: 1H NMR
Method: f) Analytical monitoring by ^1H NMR of the hydrolysis of the 5-acylsulfanyl compound 3 and oxidation in situ into compound 27
Compound 3 is prepared and purified by column as described in Example 5. 30 mg of compound 3 are dissolved in 600 μL of D2O, the solution is transferred to an NMR tube, which is stored at ambient temperature. The conversion is monitored by ^1H NMR.

[4] = Analytical monitoring by HPLC of the hydrolysis of compound 3 and oxidation in situ into compound 27, aqueous fraction at 40° C.; conditions: water; for % hydrolysis: HPLC
Method: e) Analytical monitoring by HPLC of the hydrolysis of the 5-acylsulfanyl compound 3 and oxidation in situ into compound 27
Compound 3 is prepared and purified by column as described in Example 5, using an ethyl acetate/ethanol gradient, followed by elution with water. The aqueous fraction containing the pure compound 3 is placed in a water bath at 40° C. and heated under stirring for two days. Samples are collected every hour, and the mixture is analyzed by HPLC.

SMILES: CC(=O)Sc1nc[nH]c1C[C@@H](C(=O)[O-])[N+](C)(C)C [Compound 3, L-5-acetylsulfanyl-α,N,N,N(trimethyl)-histidine]
- hydrolysis of compound 3 (extent, in words) [1]: complete
- yield of compound 26 formed from compound 3 ([2]; after 3 h 30, HPLC-ELSD): 97%
- yield of hydrolysis of compound 3 ([2]; after 3 h, 1H NMR): 90%
- hydrolysis of compound 3 (extent, in words) ([3]; after 2 days): nearly complete
- % hydrolysis ([3]; t = 0 h): 0%
- % hydrolysis ([3]; t = 2 j): 86%
- % hydrolysis ([3]; t = 2 h): 19%
- % hydrolysis ([3]; t = 10 h): 26%
- hydrolysis of compound 3 (extent, in words) ([4]; after 2 days): nearly complete
- yield of compound 27 from hydrolysis and in situ oxidation of compound 3 ([4]; after 2 days): 80%
- % hydrolysis ([4]; t = 0 h): 0%
- % hydrolysis ([4]; t = 2 j): 95%
- % hydrolysis ([4]; t = 2 h): 7%
- % hydrolysis ([4]; t = 4 h): 21%
- % hydrolysis ([4]; t = 6 h): 38%
- % hydrolysis ([4]; t = 8 h): 60%
- % hydrolysis ([4]; t = 18 h): 85%
